Source: the supplement of paper PMC8612539
≈ marks a conversion by molar mass, not a printed value.

System: Histophilus somni
Test: minimum inhibitory concentration (MIC)
Protocol: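 Broth microdilution MIC (Sensititre BOPO7F bovine plate, CLSI methods) of 19 antimicrobials against field isolates of P. multocida, M. haemolytica, H. somni (deep nasopharyngeal swabs) and E. coli, Enterococcus spp. (rectal swabs) from weaned dairy heifers. Incubation 16-24 h at 35 C. MIC is the lowest concentration preventing visible growth. Values with <= or > lie at the tested range limits. Trimethoprim-sulfamethoxazole is given as the trimethoprim component of a 1:19 mixture.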

CN(C)[C@@H]1C(O)=C(C(N)=O)C(=O)[C@@]2(O)C(O)=C3C(=O)c4c(O)cccc4[C@@](C)(O)[C@H]3C[C@@H]12 [Tetracycline]
Settings	minimum inhibitory concentration [µg/mL]
isolate (source animal id): 3	4 (≈ 9 µM)
isolate (source animal id): 4	4 (≈ 9 µM)
isolate (source animal id): 7	8 (≈ 18 µM)
isolate (source animal id): 14	8 (≈ 18 µM)
isolate (source animal id): 15	4 (≈ 9 µM)
isolate (source animal id): 17	8 (≈ 18 µM)
isolate (source animal id): 18	8 (≈ 18 µM)
isolate (source animal id): 20	4 (≈ 9 µM)
isolate (source animal id): 23	≤ 0.5
isolate (source animal id): 45	> 8
isolate (source animal id): 53	> 8
isolate (source animal id): 83	2 (≈ 4.5 µM)
isolate (source animal id): 88	8 (≈ 18 µM)
isolate (source animal id): 92	8 (≈ 18 µM)
isolate (source animal id): 93	8 (≈ 18 µM)
isolate (source animal id): 99	4 (≈ 9 µM)
isolate (source animal id): 100	4 (≈ 9 µM)
isolate (source animal id): 105	2 (≈ 4.5 µM)
isolate (source animal id): 107	4 (≈ 9 µM)
isolate (source animal id): 108	8 (≈ 18 µM)
isolate (source animal id): 109	4 (≈ 9 µM)
isolate (source animal id): 110	4 (≈ 9 µM)
isolate (source animal id): 117	8 (≈ 18 µM)
isolate (source animal id): 121	8 (≈ 18 µM)
isolate (source animal id): 123	4 (≈ 9 µM)
isolate (source animal id): 124	2 (≈ 4.5 µM)
isolate (source animal id): 127	1 (≈ 2.25 µM)
isolate (source animal id): 128	> 8
isolate (source animal id): 130	2 (≈ 4.5 µM)
isolate (source animal id): 132	> 8
isolate (source animal id): 135	> 8
isolate (source animal id): 140	> 8
isolate (source animal id): 141	≤ 0.5
isolate (source animal id): 142	1 (≈ 2.25 µM)
isolate (source animal id): 144	2 (≈ 4.5 µM)
isolate (source animal id): 146	> 8
isolate (source animal id): 147	1 (≈ 2.25 µM)
isolate (source animal id): 151	> 8
isolate (source animal id): 153	4 (≈ 9 µM)
isolate (source animal id): 154	1 (≈ 2.25 µM)
isolate (source animal id): 156	2 (≈ 4.5 µM)
isolate (source animal id): 157	4 (≈ 9 µM)
isolate (source animal id): 176	4 (≈ 9 µM)
isolate (source animal id): 183	4 (≈ 9 µM)
isolate (source animal id): 186	4 (≈ 9 µM)
isolate (source animal id): 196	4 (≈ 9 µM)
isolate (source animal id): 198	2 (≈ 4.5 µM)
isolate (source animal id): 200	4 (≈ 9 µM)
isolate (source animal id): 206	4 (≈ 9 µM)
isolate (source animal id): 208	4 (≈ 9 µM)
isolate (source animal id): 210	1 (≈ 2.25 µM)
isolate (source animal id): 212	1 (≈ 2.25 µM)
isolate (source animal id): 215	4 (≈ 9 µM)
isolate (source animal id): 216	4 (≈ 9 µM)
isolate (source animal id): 218	2 (≈ 4.5 µM)
isolate (source animal id): 219	2 (≈ 4.5 µM)
isolate (source animal id): 224	4 (≈ 9 µM)
isolate (source animal id): 228	8 (≈ 18 µM)
isolate (source animal id): 230	4 (≈ 9 µM)
isolate (source animal id): 233	> 8
isolate (source animal id): 238	≤ 0.5
isolate (source animal id): 239	> 8
isolate (source animal id): 241	4 (≈ 9 µM)
isolate (source animal id): 242	4 (≈ 9 µM)
isolate (source animal id): 243	≤ 0.5
isolate (source animal id): 245	> 8
isolate (source animal id): 246	≤ 0.5
isolate (source animal id): 247	4 (≈ 9 µM)
isolate (source animal id): 248	≤ 0.5
isolate (source animal id): 250	8 (≈ 18 µM)
isolate (source animal id): 251	> 8
isolate (source animal id): 252	4 (≈ 9 µM)
isolate (source animal id): 254	4 (≈ 9 µM)
isolate (source animal id): 258	4 (≈ 9 µM)
isolate (source animal id): 259	4 (≈ 9 µM)
isolate (source animal id): 262	> 8
isolate (source animal id): 264	1 (≈ 2.25 µM)
isolate (source animal id): 265	> 8
isolate (source animal id): 266	2 (≈ 4.5 µM)
isolate (source animal id): 267	2 (≈ 4.5 µM)
isolate (source animal id): 269	1 (≈ 2.25 µM)
isolate (source animal id): 271	2 (≈ 4.5 µM)
isolate (source animal id): 272	> 8
isolate (source animal id): 274	> 8
isolate (source animal id): 276	≤ 0.5
isolate (source animal id): 278	2 (≈ 4.5 µM)
isolate (source animal id): 280	> 8
isolate (source animal id): 281	2 (≈ 4.5 µM)
isolate (source animal id): 283	2 (≈ 4.5 µM)
isolate (source animal id): 288	4 (≈ 9 µM)
isolate (source animal id): 291	8 (≈ 18 µM)
isolate (source animal id): 292	2 (≈ 4.5 µM)
isolate (source animal id): 296	1 (≈ 2.25 µM)
isolate (source animal id): 306	2 (≈ 4.5 µM)
isolate (source animal id): 336	2 (≈ 4.5 µM)
isolate (source animal id): 337	2 (≈ 4.5 µM)
isolate (source animal id): 341	1 (≈ 2.25 µM)

C=C[C@]1(C)C[C@@H](OC(=O)CSCCN(CC)CC)[C@]2(C)[C@H](C)CC[C@]3(CCC(=O)[C@H]32)[C@@H](C)[C@@H]1O [Tiamulin]
Settings	minimum inhibitory concentration [µg/mL]
isolate (source animal id): 3	1 (≈ 2.03 µM)
isolate (source animal id): 4	1 (≈ 2.03 µM)
isolate (source animal id): 7	1 (≈ 2.03 µM)
isolate (source animal id): 14	2 (≈ 4.05 µM)
isolate (source animal id): 15	1 (≈ 2.03 µM)
isolate (source animal id): 17	1 (≈ 2.03 µM)
isolate (source animal id): 18	1 (≈ 2.03 µM)
isolate (source animal id): 20	≤ 0.5
isolate (source animal id): 23	1 (≈ 2.03 µM)
isolate (source animal id): 45	2 (≈ 4.05 µM)
isolate (source animal id): 53	2 (≈ 4.05 µM)
isolate (source animal id): 83	1 (≈ 2.03 µM)
isolate (source animal id): 88	1 (≈ 2.03 µM)
isolate (source animal id): 92	2 (≈ 4.05 µM)
isolate (source animal id): 93	1 (≈ 2.03 µM)
isolate (source animal id): 99	2 (≈ 4.05 µM)
isolate (source animal id): 100	2 (≈ 4.05 µM)
isolate (source animal id): 105	1 (≈ 2.03 µM)
isolate (source animal id): 107	2 (≈ 4.05 µM)
isolate (source animal id): 108	2 (≈ 4.05 µM)
isolate (source animal id): 109	2 (≈ 4.05 µM)
isolate (source animal id): 110	2 (≈ 4.05 µM)
isolate (source animal id): 117	1 (≈ 2.03 µM)
isolate (source animal id): 121	1 (≈ 2.03 µM)
isolate (source animal id): 123	1 (≈ 2.03 µM)
isolate (source animal id): 124	2 (≈ 4.05 µM)
isolate (source animal id): 127	1 (≈ 2.03 µM)
isolate (source animal id): 128	1 (≈ 2.03 µM)
isolate (source animal id): 130	1 (≈ 2.03 µM)
isolate (source animal id): 132	2 (≈ 4.05 µM)
isolate (source animal id): 135	1 (≈ 2.03 µM)
isolate (source animal id): 140	2 (≈ 4.05 µM)
isolate (source animal id): 141	2 (≈ 4.05 µM)
isolate (source animal id): 142	2 (≈ 4.05 µM)
isolate (source animal id): 144	2 (≈ 4.05 µM)
isolate (source animal id): 146	1 (≈ 2.03 µM)
isolate (source animal id): 147	2 (≈ 4.05 µM)
isolate (source animal id): 151	1 (≈ 2.03 µM)
isolate (source animal id): 153	2 (≈ 4.05 µM)
isolate (source animal id): 154	2 (≈ 4.05 µM)
isolate (source animal id): 156	2 (≈ 4.05 µM)
isolate (source animal id): 157	2 (≈ 4.05 µM)
isolate (source animal id): 176	4 (≈ 8.1 µM)
isolate (source animal id): 183	2 (≈ 4.05 µM)
isolate (source animal id): 186	2 (≈ 4.05 µM)
isolate (source animal id): 196	2 (≈ 4.05 µM)
isolate (source animal id): 198	1 (≈ 2.03 µM)
isolate (source animal id): 200	2 (≈ 4.05 µM)
isolate (source animal id): 206	1 (≈ 2.03 µM)
isolate (source animal id): 208	2 (≈ 4.05 µM)
isolate (source animal id): 210	≤ 0.5
isolate (source animal id): 212	≤ 0.5
isolate (source animal id): 215	2 (≈ 4.05 µM)
isolate (source animal id): 216	2 (≈ 4.05 µM)
isolate (source animal id): 218	2 (≈ 4.05 µM)
isolate (source animal id): 219	2 (≈ 4.05 µM)
isolate (source animal id): 224	2 (≈ 4.05 µM)
isolate (source animal id): 228	2 (≈ 4.05 µM)
isolate (source animal id): 230	2 (≈ 4.05 µM)
isolate (source animal id): 233	1 (≈ 2.03 µM)
isolate (source animal id): 238	≤ 0.5
isolate (source animal id): 239	2 (≈ 4.05 µM)
isolate (source animal id): 241	2 (≈ 4.05 µM)
isolate (source animal id): 242	2 (≈ 4.05 µM)
isolate (source animal id): 243	2 (≈ 4.05 µM)
isolate (source animal id): 245	2 (≈ 4.05 µM)
isolate (source animal id): 246	4 (≈ 8.1 µM)
isolate (source animal id): 247	2 (≈ 4.05 µM)
isolate (source animal id): 248	1 (≈ 2.03 µM)
isolate (source animal id): 250	2 (≈ 4.05 µM)
isolate (source animal id): 251	2 (≈ 4.05 µM)
isolate (source animal id): 252	4 (≈ 8.1 µM)
isolate (source animal id): 254	2 (≈ 4.05 µM)
isolate (source animal id): 258	2 (≈ 4.05 µM)
isolate (source animal id): 259	1 (≈ 2.03 µM)
isolate (source animal id): 262	1 (≈ 2.03 µM)
isolate (source animal id): 264	≤ 0.5
isolate (source animal id): 265	1 (≈ 2.03 µM)
isolate (source animal id): 266	1 (≈ 2.03 µM)
isolate (source animal id): 267	1 (≈ 2.03 µM)
isolate (source animal id): 269	1 (≈ 2.03 µM)
isolate (source animal id): 271	1 (≈ 2.03 µM)
isolate (source animal id): 272	1 (≈ 2.03 µM)
isolate (source animal id): 274	1 (≈ 2.03 µM)
isolate (source animal id): 276	1 (≈ 2.03 µM)
isolate (source animal id): 278	1 (≈ 2.03 µM)
isolate (source animal id): 280	≤ 0.5
isolate (source animal id): 281	2 (≈ 4.05 µM)
isolate (source animal id): 283	1 (≈ 2.03 µM)
isolate (source animal id): 288	1 (≈ 2.03 µM)
isolate (source animal id): 291	1 (≈ 2.03 µM)
isolate (source animal id): 292	1 (≈ 2.03 µM)
isolate (source animal id): 296	≤ 0.5
isolate (source animal id): 306	1 (≈ 2.03 µM)
isolate (source animal id): 336	1 (≈ 2.03 µM)
isolate (source animal id): 337	1 (≈ 2.03 µM)
isolate (source animal id): 341	1 (≈ 2.03 µM)
